Source: patent US11091740B2, “Composition for inducing dedifferentiation into cancer stem cells comprising ribosome-activating inhibitor as active ingredient, cancer organoid culture method and anticancer drug screening platform based thereon” (priority 2016, dated 2021)

Legend:
[1] = system: Cancer stem cell cultured spheroid; test: 5-FU response of cancer stem cell cultured spheroid, PI/AnnexinV flow cytometry; type: cell-based; conditions: 5-FU 375 μM for 48 hours
Description: The drug effect close to human physiological activity can be confirmed by monitoring the anticancer drug response of heterogeneous cancer cells containing a plurality of cancer stem cells induced by the exposure of ribosome-inactivating stress. […] Cancer stem cell cultured spheroid were treated with 5-FU (375 μM) for 48 hours and apoptotic cells were quantified by flow cytometry using propidium iodide (PI) and AnnexinV-FITC (1:200) as markers. The number of apoptotic cells positive for both PI and AnnexinV for 5-FU was higher in the control (−) group, but the drug reactivity was better, but those in the general spheroid culture (DMSO) were decreased.

[2] = system: epithelial cancer cells; test: Single versus repeated exposure to ribosome-inactivating stress, CD44/CD133 flow cytometry; type: cell-based; conditions: for cancer stem cells (CD44 and CD133) after a first temporary exposure: exposed once for 24 hours, spheroid cultured in stem cell medium, sub-cultured three times; for CD44 and CD133 positive stem cell groups in chronic exposure: exposure in each subculture, total of 3 exposures
Description: To reconfirm that ribosome-inactivating stress (RIS1, RIS2) is a key factor for inducing the dedifferentiation of epithelial cancer cells, the cells were exposed to ribosome-inactivating stress once for 24 hours, spheroid cultured in a stein cell culture medium for 6 days. In the experimental groups which sub-cultured in three times; and sub-cultured while exposing to the ribosome-inactivating stress on the optimum medium for cancer stem cell in each subculture (total of 3 exposures), cancer stem cells were compared quantitatively by flow cytometry with CD44 and CD133 as the marker thereof.

[3] = system: Colorectal cancer cell lines; test: Cell line-based cancer organoid, CD44 (+) cells by flow cytometry; conditions: RIS-1 10 ng/mL or RIS-2 50 ng/mL pretreated for 6 hours, spheroid, organoid culture 12 days
Description: Colorectal cancer cell lines were pretreated with ribosome-inactivating stress, RIS-1 of 10 ng/mL or RIS-2 of 50 ng/mL for 6 hours to form spheroid. Cancer organoid is formed by using spheroid induced from cancer stem cells increased by the ribosome-inactivating stress. A cancer organoid culture technique was developed from cancer stem cells increased by ribosome-inactivating stress. 100 μl of a culture medium containing 200-400 spheroid cells of about 100 μm in size among the cultured spheroids was mixed with an equal amount of a ice-cold matrigel (BD #35424, USA) and divided as a dome in a 24-well culture dish preheated in the cell incubator. Organoid formation (changes in crypt-villus domain production, morphology and size changes, etc.) is monitored by filling the organoid culture medium (STEMCELLS) so as not to reach the cell-matrigel dome and incubating for 12 days (FIG. 7A). The final cultured organoid is tested by immunohistochemistry and flow cytometry. After washing with ice-cold PBS, the organoid was separated from the matrigel and fixed with 0.1% tritonX-100, 4% PFA and immunostained. E-cadherin, an epithelial cell factor, mucin-2, a goblet cell marker for differentiated intestinal cells and F-actin for confirming cell structure formation are examined to confirm the formation of an intestinal organoid (FIG. 7A). […]

[4] = system: colon cancer cell lines; test: Spheroid culture with ribosome-inactivating stress exposure, CD44/CD133 flow cytometry; type: cell-based; conditions: RIS-1 10 ng/mL or RIS-2 50 ng/mL pretreated for 6 hours, spheroid cultured 6 days, compared with control
Description: Colon cancer cell lines were purchased from ATCC (Manassas, USA), a cell line distribution company. Cells were maintained with RPMI medium supplemented with 10% (v/v) fetal bovine serum (FBS) and 5% mixed antibiotics (50 units/mL penicillin and […] streptomycin) (welgene, Daegu, South Korea) in a 5% CO2-humidified incubator at 37° C. […] First, the cultured spheroid cells were dissociated into single cells by trypsinization, washed with phosphate buffer solution, incubated with FITC-conjugated CD44 (BD pharmingen) and APC-conjugated CD133 (MACS, Miltenyi Biotec) antibodies for 15 min, and then the expression of CD44 and CD133 positive cells was analyzed by flow cytometry (Becton Dickinson FACS Canto Il BD Bioscience, San Jose, Calif., USA).

[5] = system: CMT-93 mouse colorectal cancer cell line; test: Allograft of RIS-2 pretreated cancer cells, epithelial mesenchyme transition markers by immunohistochemistry; type: in vivo; conditions: cells pretreated with RIS-2 50 ng/mL for 6 hours, subcutaneous in C57BL/6 mice, 5-FU i.p. on day 7, tumors excised 24 h later
Description: Cancer stem cells have been identified as a major cause of cancer progression, metastasis, recurrence, and resistance to anticancer drugs. In order to investigate the in vivo activity of cancer stem cells produced by the exposure to ribosome-inactivating stress, epithelial mesenchyme transition (EMT) phenomenon, which is an in vivo phenotype representing the characteristics of cancer stem cells was examined. The in vivo activity of cancer stem cells was determined by the degree of epithelial mesenchyme transition, which is verified by the decrease of E-cadherin, an epithelial cell marker and the increase of the protein expression of N-cadherin and vimentin, mesenchymal marker. For this purpose, in vivo experiment using allografts of cancer cells was performed. The CMT-93 mouse colorectal cancer cell line was cultured in DMEM (Welgene, Daegu, South Korea) supplemented with 10% (v/v) fetal bovine serum (FBS) and 5% mixed antibiotics (50 units/mL penicillin, […] streptomycin) in a 5% CO2, 37 humidified incubator at 37° C. CMT-93 cells (5×10^6) pretreated with RIS-2 (50 ng/mL) for 6 hours were resuspended with 200 μL of PBS and injected subcutaneously into a 14-week-old male C57BL/6 mice. Seven days later, […] anticancer drug 5-FU was intraperitoneally injected and tumors were excised surgically 24 h later. Solid tumors were obtained by immunohistochemistry using E-cadherin (1:200, BD Science), N-cadherin (1:200, BD Science), vimentin (1:200, Cell signaling) specific antibodies. The excised solid tumors were fixed in 4% paraformaldehyde, embedded in paraffin, and sectioned to prepare slice slide specimens. After dehydration and antibody binding, spatial expression of protein expression in tissues was investigated by 3,3-diaminobenzidine (DAB) substrate reaction and relative expression of DAB versus hematoxylin-positive cells was quantified by a tissue analysis software (Histo Quest, TissueGnotics).

Q: With `O=c1[nH]cc(F)c(=O)[nH]1` [5-FU, fluorouracil] as the compound, how does the “number of apoptotic cells positive for both PI and AnnexinV” value ([1]; control (−) group) read?
A: Its value is “higher”.

Q: What about the “number of apoptotic cells positive for both PI and AnnexinV” value ([1]; general spheroid culture (DMSO)) of the same compound?
A: Its value is “decreased”.

Q: What about the “drug reactivity (apoptotic cells)” value ([1]; spheroid containing cancer stem cell group induced by ribosome-inactivating stress) of the same compound?
A: The value was “further reduced”.

Q: With `COc1ccc(C[C@H]2NC[C@H](O)[C@H]2OC(C)=O)cc1` [RIS-1, anisomycin] as the compound, how does the “cancer stem cells (CD44 and CD133) after a first temporary exposure” value [2] read?
A: Its value is “maintained continuously”.

Q: And the “CD44 and CD133 positive stem cell groups in chronic exposure” value [2]?
A: The value was “increased significantly”.

Q: What about the “CD44 (+) cancer stem cell group in cultured cancer organoid” value [3] of the same compound?
A: Its value is “significantly increased”.

Q: What about the “CD44 and CD133 positive cells representing cancer stem cell group” value [4] of the same compound?
A: The value was “significantly increased”.

Q: `CC1=C[C@H]2O[C@@H]3[C@H](O)C[C@](C)([C@@]2(CO)[C@H](O)C1=O)[C@]31CO1` [RIS-2, deoxynivalenol] was tested. Which “cancer stem cells (CD44 and CD133) after a first temporary exposure” value [2] did it give?
A: Its value is “maintained continuously”.

Q: And the “CD44 and CD133 positive stem cell groups in chronic exposure” value [2]?
A: Its value is “increased significantly”.

Q: What about the “epithelial cell marker E-cadherin in solid tumors” value [5] of the same compound?
A: Its value is “decreased”.

Q: And the “mesenchymal cell marker N-cadherin in solid tumors” value [5]?
A: The value was “significantly increased”.

Q: What about the “mesenchymal cell marker vimentin protein in solid tumors” value [5] of the same compound?
A: Its value is “significantly increased”.

Q: What about the “CD44 (+) cancer stem cell group in cultured cancer organoid” value [3] of the same compound?
A: The value was “significantly increased”.

Q: And the “CD44 and CD133 positive cells representing cancer stem cell group” value [4]?
A: The value was “significantly increased”.
